Test results published in patent US4207326A, “Antimicrobial quaternary pyrazole derivatives” (Cilag-Chemie A.G., priority 1979, dated 1980).
Read-outs that look alike come from different tables or passages of the source.

Assays:
[1] = tested on: S. schenkii; test: Antifungal activity: Minimum Inhibitory Concentration; format: cell-based, Sporotrichon schenkii NCPF 3182; settings: S. schenkii, 27° C., one week, read-out: Minimum Inhibitory Concentration
Procedure: (§1) The antimicrobial activity was determined by inoculation of the test microorganism into suitable growth media containing solutions of the compounds at concentrations of 100, 50, 10, 5, 1.0, 0.5 and 0.1 μg/ml. The reference antibiotics used were Gentamicin for the antibacterial tests and Amphotericin B for the antimycotic and antifungal tests. After incubation the antimicrobial activity was recorded as the Minimal Inhibitory Concentration (M.I.C.), i.e., the lowest concentration preventing macroscopically visible growth, for each test compound against each organism.
(§2) An initial solution of each formula (I) compound to be tested in sterile distilled water was prepared at a concentration of 1000 μg/ml. With appropriate dilutions using sterile distilled water, additional solutions were prepared at concentrations of 500, 100, 50, 10, 5 and 1 μg/ml.
(§3) The A. corymbifera, A. fumigatus, S. schenkii, T. rubrum, T. mentagrophytes, M. canis and P. verrucosa strains were all maintained on Sabouraud-Dextrose Agar (Oxoid CM 41) by incubating for 14 days at 27° C. To prepare the inocula 30 ml volumes of Sabouraud-Liquid medium (Oxoid CM 147) were inoculated from the agar cultures and incubated at 27° C. until heavy uniform growth resulted. The mycelial growth was then broken up by shaking with glass beads.
(§4) 1 Ml aliquots were removed from each of the cultures for the purpose of making viable counts and the cultures were then held at 4° C. The viable counts were made by preparing serial ten-fold dilutions of the cultures in sterile physiological saline and spreading on plates of Sabouraud-Dextrose Agar (Oxoid CM 41) which were then incubated at 27° C. for 14 days. When the viable counts had confirmed that each of the inocula contained approximately 10^6 colony forming units (C.F.U.) per ml the cultures were withdrawn from the refrigerator and used as the inocula for the tests.
(§5) (c) For the tests on each of the remaining seven strains and each of the test and reference compounds, a series of 8 tubes containing 4.5 ml volumes of Sabouraud-Liquid Medium (Oxoid CM 147) were prepared. To 7 of these were added 0.5 ml volumes of the final solutions of the test compounds, giving final concentrations in the broths of 100, 50, 10, 5, 1.0, 0.5 and 0.1 μg/ml. To the eighth tube in each series was added 0.5 ml of the solvent used and diluted as for the preparation of the 500 μg/ml solution of the compound. This tube was used as a growth control. The tubes were then inoculated with 0.1 ml aliquots of the inocula prepared as in "(b) Fungi" above. The tubes were then incubated at 27° C. with continuous shaking for a period of one week. The tubes were then examined for evidence of growth as shown by the presence of mycelial growth in the medium and the lowest concentration of the test compound which prevented fungal growth was recorded as the Minimal Inhibitory Concentration. This test procedure was carried out on two separate days.

[2] = tested on: P. verrucosa; test: as above; format: cell-based, Phialophore verrucosa NCPF 1119; settings: Phialophora verrucosa, P. verrucosa, 27° C., one week, read-out: Minimum Inhibitory Concentration
Procedure: as §1, §2, §3, §4, §5

[3] = tested on: P. mirabilis; test: Antibacterial activity: Minimum Inhibitory Concentration; format: cell-based, Proteus mirabilis NCTC 8559; settings: Proteus mirabilis, P. mirabilis, 37° C., 24 hours, read-out: Minimum Inhibitory Concentration
Procedure: as §1, §2
(§6) They were cultured and maintained on Tryptone Soy Agar (Oxoid CM 131), with the addition of 10% horse blood for the S. pyogenes.
(§7) To prepare the organisms as inocula for the test, slopes of this medium were streaked with the organisms and incubated at 37° C. for 24 hours. 4.5 Ml volumes of Brian-Heart Infusion Broth (Oxoid CM 225) were then inoculated with a platinum loop from the agar slope cultures and incubated for 24 hours at 37° C. The final inocula were then prepared by adding 0.1 ml aliquots of the Brain-Heart Infusion Broth cultures to 100 ml volumes of sterile physiological saline.
(§8) (a) For the test on each of the bacterial strains and each of the test and reference compounds, a series of 8 tubes containing 4.5 ml volumes of Brain-Heart Infusion Broth (Oxoid CM 225) were prepared. To 7 of these were added 0.5 ml volumes of the final solutions of the test compouns, giving final concentrations in the broths of 100, 50, 10, 5, 1.0, 0.5 and 0.1 μg/ml. To the eighth tube in each series was added 0.5 ml of the solvent used and diluted as for the preparation of the 1000 μg/ml solution of the compound. This tube was used as the growth control. The tubes were inoculated with 0.02 ml aliquots of the inocula prepared in accordance with "(a) Bacteria" above, and incubated at 37° C. for 24 hours. The tubes were then examined for evidence of bacterial growth as shown by turbidity of the medium and the lowest concentration of the test compound which prevented bacterial growth was recorded as the Minimal Inhibitory Concentration. This test procedure was carried out on two separate days.

[4] = tested on: P. aeruginosa; test: as above; format: cell-based, Pseudomonas aeruginosa ATCC 9027; settings: Pseudomonas aeruginosa, P. aeruginosa, 37° C., 24 hours, read-out: Minimum Inhibitory Concentration
Procedure: as §1, §2, §6, §7, §8

[5] = tested on: C. neoformans; test: Antimycotic activity: Minimum Inhibitory Concentration; format: cell-based, Cryptococcus neoformans NCPF 3184; settings: Cryptococcus neoformans, pH 5.5, C. neoformans, pH 5.5, 30° C., 72 hours, read-out: Minimum Inhibitory Concentrations
Procedure: as §1, §2
The C. neoformans was also maintained on Sabouraud-Dextrose Agar (Oxoid CM 41), but in this case cultures for the preparation of the inoculum were incubated on this agar at 30° C. for 48 hours. A 4.5 ml volume of citric acid-phosphate buffer pH 5.5 plus Yeast-Nitrogen Base (Difco-0392-15) was then inoculated from the agar culture and incubated at 30° C. for 48 hours. A 0.1 ml aliquot of this culture was then added to 100 ml sterile physiological saline to give the final inoculum.
(b) For the tests on each of the C. albicans, C. tropicalis and C. neoformans strains and each of the test and reference compounds, a series of 8 tubes containing 4.5 ml volumes of citric acid-phosphate buffer pH 5.5 plus Yeast-Nitrogen Base (Difco 0392-15) were prepared. To 7 of these were added 0.5 ml volumes of the final solutions of the test compounds, giving final concentrations in the broths of 100, 50, 10, 5, 1.0, 0.5 and 0.1 μg/ml. To the eighth tube in each series was added 0.5 ml of the solvent used and diluted as for the preparation of the 1000 μg/ml solution of the compound. This tube was used as the growth control. The tubes were then inoculated with 0.1 ml aliquots of the inocula prepared as in "(b) Fungi" above. The tubes inoculated with the C. albicans and C. tropicalis were inoculated at 37° C. for 72 hours and the tubes inoculated with the C. neoformans straim were incubated at 30° C. for 72 hours. […] The tubes were then examined for evidence of growth as shown by turbidity of the medium and the lowest concentration of the test compound which prevented fungal growth was recorded as the Minimal Inhibitory Concentration. This test procedure was carried out on two separate days.

[6] = tested on: T. rubrum; test: Antifungal activity: Minimum Inhibitory Concentration; format: cell-based, Trichophyton rubrum NCPF 197; settings: Trichophyton rubrum, T. rubrum, 27° C., one week, read-out: Minimum Inhibitory Concentration
Procedure: as §1, §2, §3, §4, §5

Row | Structure (SMILES) | MIC ([1]; Day 1) [µg/mL] | MIC ([1]; Day 2) [µg/mL] | MIC ([2]; Day 1) [µg/mL] | MIC ([2]; Day 2) [µg/mL] | MIC ([3]; Day 1) [µg/mL] | MIC ([3]; Day 2) [µg/mL] | MIC ([4]; Day 1) [µg/mL] | MIC ([4]; Day 2) [µg/mL] | MIC ([5]; Day 1) [µg/mL] | MIC ([5]; Day 2) [µg/mL] | MIC ([6]; Day 1) [µg/mL] | MIC ([6]; Day 2) [µg/mL]
1 | CCCCCCCCCCCCCC[n+]1c(C)cc(C)n1Cc1ccc([N+](=O)[O-])cc1.[Br-] [Example 6-D, 3,5-dimethyl-2(4-nitrobenzyl)-1-tetradecyl-pyrazolium bromide] | 5 | 5 | 10 | 10 | 50 | 50 | 100 | 50 | 0.5 | 0.5 | 10 | 10
2 | CCCCCCCCCCCC[n+]1c(C)cc(C)n1Cc1ccc(Cl)cc1.[Br-] [Example 6-E, 2-(p-chlorobenzyl)-3,5-dimethyl-1-dodecyl-pyrazolium bromide] | 5 | 1 | 5 | 5 | 50 | 50 | 5 | 5 | 0.5 | 0.5 | 5 | 5
3 | C=CCn1c(C)cc(C)[n+]1CCCCCCCCCCCCCCCC.[Br-] [Example 7, 2-allyl-3,5-dimethyl-1-hexadecyl-pyrazoliumbromide] | 5 | 5 | 5 | 5 | 10 | 50 | 50 | 10 | 1 | 0.5 | 1 | 1
